# Assays:
# Assay in all cases: pIC50, kinobeads binding competition
# UniProt Q15831 = target: T1, UniProt Q15831
# T1 sequence (whole entry): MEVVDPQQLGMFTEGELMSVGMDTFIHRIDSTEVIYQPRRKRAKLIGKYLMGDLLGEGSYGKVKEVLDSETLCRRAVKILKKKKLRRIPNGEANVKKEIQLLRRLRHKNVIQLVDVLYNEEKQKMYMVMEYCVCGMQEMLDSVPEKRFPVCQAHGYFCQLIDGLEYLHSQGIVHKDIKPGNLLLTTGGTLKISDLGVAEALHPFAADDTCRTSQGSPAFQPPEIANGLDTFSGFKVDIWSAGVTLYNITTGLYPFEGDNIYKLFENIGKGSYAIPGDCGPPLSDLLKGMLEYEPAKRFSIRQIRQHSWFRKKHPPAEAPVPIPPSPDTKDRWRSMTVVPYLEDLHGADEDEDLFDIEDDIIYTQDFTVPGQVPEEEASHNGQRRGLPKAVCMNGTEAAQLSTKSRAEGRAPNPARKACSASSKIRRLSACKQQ
# How it was run: (§1)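 Fold changes relative to vehicle, from biological duplicates, were fitted with logistic dose-response models in the R drc package to give pIC50. These fold changes came from TMT10 LC-MS/MS quantification of digested Kinobeads-bound proteins. Compound was applied at nine concentrations (top 30 μM) either to live Jurkat cells in 1:4 steps for 60 min at 37 °C before lysis, or to Jurkat lysate or a 1:1:1:1 HEK293/K-562/HepG2/placenta lysate mix in 1:5 steps for 60 min at 4 °C.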
# UniProt Q9Y2U5 = target: T2, UniProt Q9Y2U5
# T2 sequence (whole entry): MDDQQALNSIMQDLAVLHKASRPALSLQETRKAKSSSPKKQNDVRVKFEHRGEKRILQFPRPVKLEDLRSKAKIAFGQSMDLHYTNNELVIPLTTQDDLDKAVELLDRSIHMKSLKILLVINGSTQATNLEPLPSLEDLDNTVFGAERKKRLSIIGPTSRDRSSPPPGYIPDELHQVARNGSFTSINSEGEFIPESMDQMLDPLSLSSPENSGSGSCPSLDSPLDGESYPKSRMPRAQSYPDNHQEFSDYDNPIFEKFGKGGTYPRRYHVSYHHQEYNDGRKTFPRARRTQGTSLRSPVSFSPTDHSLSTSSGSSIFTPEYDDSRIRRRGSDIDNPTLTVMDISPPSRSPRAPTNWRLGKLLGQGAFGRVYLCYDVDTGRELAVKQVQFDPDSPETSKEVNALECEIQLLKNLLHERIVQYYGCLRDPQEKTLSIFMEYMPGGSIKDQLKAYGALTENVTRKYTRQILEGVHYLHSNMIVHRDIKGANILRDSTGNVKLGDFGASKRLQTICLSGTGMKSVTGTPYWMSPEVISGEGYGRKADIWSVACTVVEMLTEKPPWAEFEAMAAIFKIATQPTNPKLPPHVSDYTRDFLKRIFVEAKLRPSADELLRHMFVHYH
# How it was run: as §1
# EIF2AK3 = target: T3, EIF2AK3 (UniProt Q9NZJ5); conditions: cell material: Lysate mix
# T3 sequence (whole entry): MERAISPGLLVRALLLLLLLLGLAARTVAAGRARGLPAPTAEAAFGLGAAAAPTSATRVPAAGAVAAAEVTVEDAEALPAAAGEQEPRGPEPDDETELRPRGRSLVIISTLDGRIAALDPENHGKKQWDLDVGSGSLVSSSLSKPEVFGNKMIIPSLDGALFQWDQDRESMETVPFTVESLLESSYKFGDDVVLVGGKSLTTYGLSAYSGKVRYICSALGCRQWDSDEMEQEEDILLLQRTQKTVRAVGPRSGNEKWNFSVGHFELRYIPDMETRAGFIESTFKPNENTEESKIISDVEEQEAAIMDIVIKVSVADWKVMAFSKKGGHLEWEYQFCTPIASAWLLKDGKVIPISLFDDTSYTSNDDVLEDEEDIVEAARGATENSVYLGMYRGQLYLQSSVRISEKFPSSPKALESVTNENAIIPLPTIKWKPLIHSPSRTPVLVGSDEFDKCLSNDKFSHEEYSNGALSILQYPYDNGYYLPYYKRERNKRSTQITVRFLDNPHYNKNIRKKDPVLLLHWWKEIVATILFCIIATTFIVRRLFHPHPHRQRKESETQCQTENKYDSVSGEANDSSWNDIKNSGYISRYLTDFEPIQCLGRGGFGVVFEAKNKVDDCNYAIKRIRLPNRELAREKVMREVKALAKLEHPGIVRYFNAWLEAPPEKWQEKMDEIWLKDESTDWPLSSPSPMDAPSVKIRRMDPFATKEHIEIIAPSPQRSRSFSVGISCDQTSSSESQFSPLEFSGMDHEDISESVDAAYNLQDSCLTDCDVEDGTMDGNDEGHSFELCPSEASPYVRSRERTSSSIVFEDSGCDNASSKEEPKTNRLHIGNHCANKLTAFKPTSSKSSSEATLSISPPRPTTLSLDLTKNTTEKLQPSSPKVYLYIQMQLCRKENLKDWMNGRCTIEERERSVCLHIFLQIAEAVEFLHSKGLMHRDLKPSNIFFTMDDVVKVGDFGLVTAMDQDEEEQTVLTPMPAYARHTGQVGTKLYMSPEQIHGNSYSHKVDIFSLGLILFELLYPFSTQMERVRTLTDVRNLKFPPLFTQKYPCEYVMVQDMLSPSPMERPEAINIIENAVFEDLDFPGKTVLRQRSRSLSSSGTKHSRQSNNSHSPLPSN
# How it was run: as §1
# UniProt P46734 = target: T4, UniProt P46734
# T4 sequence (whole entry): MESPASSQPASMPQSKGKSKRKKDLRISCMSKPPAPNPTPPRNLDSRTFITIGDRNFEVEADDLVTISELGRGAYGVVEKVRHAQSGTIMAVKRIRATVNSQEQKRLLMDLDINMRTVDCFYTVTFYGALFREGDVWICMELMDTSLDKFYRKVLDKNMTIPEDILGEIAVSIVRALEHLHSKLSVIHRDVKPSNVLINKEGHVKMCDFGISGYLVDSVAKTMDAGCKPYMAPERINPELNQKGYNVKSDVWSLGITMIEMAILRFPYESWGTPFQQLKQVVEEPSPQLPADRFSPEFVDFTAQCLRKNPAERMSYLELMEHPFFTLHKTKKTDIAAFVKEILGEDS
# How it was run: as §1
# INSR = INSR (UniProt P06213)
# Chain of INSR (P06213 whole entry): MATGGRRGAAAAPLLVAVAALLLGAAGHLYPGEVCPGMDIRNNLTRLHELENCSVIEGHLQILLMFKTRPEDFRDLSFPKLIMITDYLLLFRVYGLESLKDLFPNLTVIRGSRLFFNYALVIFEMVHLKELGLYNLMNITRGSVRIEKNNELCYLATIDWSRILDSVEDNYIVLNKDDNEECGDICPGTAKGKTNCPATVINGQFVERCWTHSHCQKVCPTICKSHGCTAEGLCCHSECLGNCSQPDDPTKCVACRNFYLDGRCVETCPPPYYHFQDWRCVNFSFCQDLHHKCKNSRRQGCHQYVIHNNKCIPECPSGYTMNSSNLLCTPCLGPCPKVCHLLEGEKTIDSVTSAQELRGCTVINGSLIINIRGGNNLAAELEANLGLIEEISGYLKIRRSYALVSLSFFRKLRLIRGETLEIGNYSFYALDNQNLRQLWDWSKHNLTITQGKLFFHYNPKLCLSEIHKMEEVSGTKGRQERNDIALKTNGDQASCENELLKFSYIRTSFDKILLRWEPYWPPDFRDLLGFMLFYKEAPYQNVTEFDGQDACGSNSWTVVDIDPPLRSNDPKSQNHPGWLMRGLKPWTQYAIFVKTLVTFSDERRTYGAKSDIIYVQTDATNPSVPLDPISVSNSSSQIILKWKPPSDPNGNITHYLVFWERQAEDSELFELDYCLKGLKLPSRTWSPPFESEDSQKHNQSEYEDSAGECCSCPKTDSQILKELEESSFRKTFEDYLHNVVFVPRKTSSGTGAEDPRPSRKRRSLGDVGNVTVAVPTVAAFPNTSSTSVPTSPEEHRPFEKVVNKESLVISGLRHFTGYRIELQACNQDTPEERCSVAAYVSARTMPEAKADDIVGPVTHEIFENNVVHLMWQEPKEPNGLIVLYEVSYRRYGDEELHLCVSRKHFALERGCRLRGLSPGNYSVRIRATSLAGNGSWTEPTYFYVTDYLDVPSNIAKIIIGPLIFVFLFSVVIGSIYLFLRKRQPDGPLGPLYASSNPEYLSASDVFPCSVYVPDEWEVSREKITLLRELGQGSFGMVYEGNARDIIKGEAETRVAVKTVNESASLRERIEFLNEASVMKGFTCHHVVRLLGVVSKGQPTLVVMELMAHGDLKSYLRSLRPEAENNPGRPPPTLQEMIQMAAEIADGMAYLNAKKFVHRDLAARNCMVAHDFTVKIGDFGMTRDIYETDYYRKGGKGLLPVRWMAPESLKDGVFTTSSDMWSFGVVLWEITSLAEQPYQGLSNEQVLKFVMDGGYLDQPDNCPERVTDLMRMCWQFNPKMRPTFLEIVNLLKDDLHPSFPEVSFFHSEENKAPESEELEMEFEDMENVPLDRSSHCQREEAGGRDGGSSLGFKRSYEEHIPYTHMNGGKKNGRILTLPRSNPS
# How it was run: as §1
# UniProt P35968 = conditions: cell material: Lysate mix
# Chain of UniProt P35968 (P35968 whole entry): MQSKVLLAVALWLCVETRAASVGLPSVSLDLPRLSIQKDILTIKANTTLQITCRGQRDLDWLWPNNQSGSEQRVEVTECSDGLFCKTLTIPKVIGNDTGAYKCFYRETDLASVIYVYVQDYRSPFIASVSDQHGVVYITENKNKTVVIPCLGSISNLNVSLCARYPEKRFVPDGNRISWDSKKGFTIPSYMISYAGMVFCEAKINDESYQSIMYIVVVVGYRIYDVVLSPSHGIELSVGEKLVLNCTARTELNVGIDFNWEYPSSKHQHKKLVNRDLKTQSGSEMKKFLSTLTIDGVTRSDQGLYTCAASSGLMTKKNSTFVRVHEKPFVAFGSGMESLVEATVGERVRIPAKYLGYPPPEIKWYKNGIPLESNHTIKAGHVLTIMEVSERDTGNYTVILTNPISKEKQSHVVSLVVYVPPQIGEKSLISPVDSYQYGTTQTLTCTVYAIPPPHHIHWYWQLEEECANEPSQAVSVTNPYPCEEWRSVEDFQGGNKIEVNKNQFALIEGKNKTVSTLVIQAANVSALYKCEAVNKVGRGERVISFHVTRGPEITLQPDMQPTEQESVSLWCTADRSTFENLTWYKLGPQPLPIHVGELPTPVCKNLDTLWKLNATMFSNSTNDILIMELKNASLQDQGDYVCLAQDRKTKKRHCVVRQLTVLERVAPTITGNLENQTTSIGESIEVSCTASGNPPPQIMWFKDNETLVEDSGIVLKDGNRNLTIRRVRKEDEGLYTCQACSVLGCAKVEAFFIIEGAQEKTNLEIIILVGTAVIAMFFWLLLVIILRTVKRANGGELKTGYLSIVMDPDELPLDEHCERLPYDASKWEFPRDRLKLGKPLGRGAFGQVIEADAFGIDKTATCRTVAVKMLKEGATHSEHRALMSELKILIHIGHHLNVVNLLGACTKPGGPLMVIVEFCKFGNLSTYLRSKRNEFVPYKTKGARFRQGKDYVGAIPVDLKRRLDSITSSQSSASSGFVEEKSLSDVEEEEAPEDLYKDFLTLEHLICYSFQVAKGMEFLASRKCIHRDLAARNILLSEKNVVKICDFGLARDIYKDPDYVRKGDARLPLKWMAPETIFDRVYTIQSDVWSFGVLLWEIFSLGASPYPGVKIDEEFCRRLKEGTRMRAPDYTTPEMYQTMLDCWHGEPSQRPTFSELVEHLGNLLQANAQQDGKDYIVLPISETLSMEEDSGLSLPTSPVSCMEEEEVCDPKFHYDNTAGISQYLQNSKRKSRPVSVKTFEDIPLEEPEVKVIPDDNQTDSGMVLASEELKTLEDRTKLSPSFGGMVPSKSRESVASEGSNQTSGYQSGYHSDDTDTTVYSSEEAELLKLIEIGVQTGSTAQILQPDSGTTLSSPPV
# How it was run: as §1
# UniProt Q00536 = target: UniProt Q00536
# Chain of UniProt Q00536 (Q00536 whole entry): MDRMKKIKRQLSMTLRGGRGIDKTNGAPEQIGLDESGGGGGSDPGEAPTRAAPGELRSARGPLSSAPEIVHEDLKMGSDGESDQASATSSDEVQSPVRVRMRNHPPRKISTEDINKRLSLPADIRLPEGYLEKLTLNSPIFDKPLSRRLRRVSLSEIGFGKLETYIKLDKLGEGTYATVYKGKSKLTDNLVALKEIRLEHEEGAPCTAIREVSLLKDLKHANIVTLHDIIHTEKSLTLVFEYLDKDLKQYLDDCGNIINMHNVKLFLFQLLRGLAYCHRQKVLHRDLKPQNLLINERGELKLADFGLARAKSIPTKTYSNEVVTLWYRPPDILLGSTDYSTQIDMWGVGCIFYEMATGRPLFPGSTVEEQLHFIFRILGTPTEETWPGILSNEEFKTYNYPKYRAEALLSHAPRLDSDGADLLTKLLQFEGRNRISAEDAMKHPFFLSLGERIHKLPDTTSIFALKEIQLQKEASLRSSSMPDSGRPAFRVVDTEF
# How it was run: as §1
# UniProt P68400 = target: UniProt P68400
# Chain of UniProt P68400 (P68400 whole entry, looked up): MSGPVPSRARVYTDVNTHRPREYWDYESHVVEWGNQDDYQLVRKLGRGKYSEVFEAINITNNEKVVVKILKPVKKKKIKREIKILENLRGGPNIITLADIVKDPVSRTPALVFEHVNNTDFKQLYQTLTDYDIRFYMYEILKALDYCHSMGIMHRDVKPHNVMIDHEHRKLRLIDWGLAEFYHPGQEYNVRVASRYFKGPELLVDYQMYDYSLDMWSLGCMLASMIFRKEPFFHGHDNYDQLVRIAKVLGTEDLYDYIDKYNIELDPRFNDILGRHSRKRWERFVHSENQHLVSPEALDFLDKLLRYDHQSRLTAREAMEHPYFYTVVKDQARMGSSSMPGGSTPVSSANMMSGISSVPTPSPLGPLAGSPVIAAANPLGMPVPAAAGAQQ
# How it was run: as §1
# PAK4 = PAK4 (UniProt O96013)
# Chain of PAK4 (O96013 whole entry, looked up): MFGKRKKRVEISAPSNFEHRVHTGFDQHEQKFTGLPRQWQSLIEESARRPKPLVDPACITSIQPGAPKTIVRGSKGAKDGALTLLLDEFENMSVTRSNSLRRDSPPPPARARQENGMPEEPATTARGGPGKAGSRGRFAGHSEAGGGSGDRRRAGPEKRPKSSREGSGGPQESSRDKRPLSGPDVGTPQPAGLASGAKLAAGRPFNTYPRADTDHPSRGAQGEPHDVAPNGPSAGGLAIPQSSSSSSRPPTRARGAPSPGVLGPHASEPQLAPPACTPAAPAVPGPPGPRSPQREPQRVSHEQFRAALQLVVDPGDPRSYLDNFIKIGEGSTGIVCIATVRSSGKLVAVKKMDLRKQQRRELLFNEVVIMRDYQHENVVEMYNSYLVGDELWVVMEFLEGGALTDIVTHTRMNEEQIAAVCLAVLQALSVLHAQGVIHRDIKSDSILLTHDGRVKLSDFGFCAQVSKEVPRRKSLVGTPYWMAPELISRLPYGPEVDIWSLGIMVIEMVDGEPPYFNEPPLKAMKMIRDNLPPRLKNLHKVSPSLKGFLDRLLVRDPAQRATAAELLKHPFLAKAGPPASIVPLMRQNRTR
# How it was run: as §1
pIC50 (UniProt Q15831; cell material: Lysate mix),pIC50 (UniProt Q9Y2U5; cell material: Jurkat lysate),pIC50 (UniProt Q9Y2U5; cell material: Lysate mix),pIC50 (EIF2AK3),pIC50 (UniProt P46734; cell material: Jurkat lysate),pIC50 (UniProt P46734; cell material: Lysate mix),pIC50 (INSR; cell material: Lysate mix),pIC50 (UniProt P35968),pIC50 (UniProt Q00536; cell material: Lysate mix),pIC50 (UniProt P68400; cell material: Lysate mix),pIC50 (PAK4; cell material: Lysate mix),Structure (SMILES),pIC50 (UniProt Q15831; cell material: Jurkat lysate),pIC50 (UniProt Q9Y2U5; cell material: Jurkat cells),pIC50 (UniProt P46734; cell material: Jurkat cells),pIC50 (INSR; cell material: Jurkat cells),pIC50 (INSR; cell material: Jurkat lysate),pIC50 (UniProt Q00536; cell material: Jurkat cells),pIC50 (UniProt Q00536; cell material: Jurkat lysate),pIC50 (UniProt P68400; cell material: Jurkat lysate),pIC50 (PAK4; cell material: Jurkat cells),pIC50 (PAK4; cell material: Jurkat lysate),pIC50 (UniProt P68400; cell material: Jurkat cells)
< 4.52,< 4.52,< 4.52,< 4.52,< 4.52,< 4.52,< 4.52,< 4.52,< 4.52,< 4.52,< 4.52,O=C(NCCNC(=O)c1cc(Nc2cc(C3CC3)[nH]n2)nc(N2CCN(Cc3ccc(S(=O)(=O)F)cc3)CC2)n1)OC1CC/C=C/CCC1 (configuration not stated),< 4.52,5.38,< 4.52,< 4.52,< 4.52,5.85,< 4.52,< 4.52,6.17,< 4.52,
< 4.52,,< 4.52,< 4.52,,< 4.52,< 4.52,< 4.52,< 4.52,< 4.52,< 4.52,Cc1cc(Nc2cc(C(=O)NCCNC(=O)OC3CC/C=C/CCC3)nc(N3CCN(Cc4ccc(S(=O)(=O)F)cc4)CC3)n2)n[nH]1 (configuration not stated),,,,,,,,,,,
5.4,,5.29,< 4.52,,4.9,< 4.52,< 4.52,5.76,5.39,5.27,CCNC(=O)c1cc(Nc2cc(C3CC3)[nH]n2)nc(N2CCN(Cc3ccc(S(=O)(=O)F)cc3)CC2)n1,,,,,,,,,,,
4.61,,4.67,< 4.52,,< 4.52,< 4.52,< 4.52,4.76,5.15,4.7,CCNC(=O)c1cc(Nc2cc(C)[nH]n2)nc(N2CCN(Cc3ccc(S(=O)(=O)F)cc3)CC2)n1,,,,,,,,,,,
4.78,,4.82,< 4.52,,< 4.52,< 4.52,< 4.52,< 4.52,4.89,4.8,C#CCNC(=O)c1cc(Nc2cc(C)[nH]n2)nc(N2CCN(Cc3ccc(S(=O)(=O)F)cc3)CC2)n1,,,,,,,,,,,

Structure (SMILES),pIC50 (UniProt Q15831; cell material: Lysate mix),pIC50 (UniProt Q9Y2U5; cell material: Jurkat lysate),pIC50 (UniProt Q9Y2U5; cell material: Lysate mix),pIC50 (EIF2AK3),pIC50 (UniProt P46734; cell material: Jurkat lysate),pIC50 (UniProt P46734; cell material: Lysate mix),pIC50 (INSR; cell material: Lysate mix),pIC50 (UniProt P35968),pIC50 (UniProt Q00536; cell material: Lysate mix),pIC50 (UniProt P68400; cell material: Lysate mix),pIC50 (PAK4; cell material: Lysate mix),pIC50 (UniProt Q15831; cell material: Jurkat lysate),pIC50 (UniProt Q9Y2U5; cell material: Jurkat cells),pIC50 (UniProt P46734; cell material: Jurkat cells),pIC50 (INSR; cell material: Jurkat cells),pIC50 (INSR; cell material: Jurkat lysate),pIC50 (UniProt Q00536; cell material: Jurkat cells),pIC50 (UniProt Q00536; cell material: Jurkat lysate),pIC50 (UniProt P68400; cell material: Jurkat lysate),pIC50 (PAK4; cell material: Jurkat cells),pIC50 (PAK4; cell material: Jurkat lysate),pIC50 (UniProt P68400; cell material: Jurkat cells)
C#CCNC(=O)c1cc(Nc2cc(C3CC3)[nH]n2)nc(N2CCN(Cc3ccc(S(=O)(=O)F)cc3)CC2)n1,6.42,,5.47,< 4.52,,4.87,< 4.52,< 4.52,5.89,5.02,5.58,5.81,5.84,5.54,4.82,< 4.52,6.35,5.01,< 4.52,5.78,5.19,5.62
